Results from patent US20250236608A1, “EGFR INHIBITORS” (Blueprint Medicines Corporation, priority 2022, published 2025).

Tests used:
EGFR (d746-750) = EGFR (d746-750) (Homo sapiens (Human), UniProt P00533, DEL746-750); experiment: Biochemical EGFR inhibition assay, EGFR (d746-750); conditions: Caliper mobility shift; 1.0 mM ATP or ATP Km; read-out: Enz EGFR_Exon19-del746-750 IC50
EGFR L858R = EGFR L858R (Homo sapiens (Human), UniProt P00533, L858R); experiment: Biochemical EGFR inhibition assay, EGFR L858R; conditions: Caliper mobility shift; 1.0 mM ATP or ATP Km; read-out: Enz EGFR_L858R IC50
[1] = target: pEGFR (Tyr1068) in PC-9 cells (Ex19Del) (Homo sapiens (Human), UniProt P00533, DEL746-750); experiment: PC-9 pEGFR AlphaLISA assay; format: cell-based; conditions: 4 hours incubation, p-EGFR (Tyr1068) AlphaLISA, read-out: Ext pEGFR_PC-9 Ex19Del IC50
Outline: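 Readout: AlphaLISA SureFire Ultra signal in cell lysates, with acceptor beads for 1.5-2 h and donor beads overnight at room temperature in the dark. Beforehand, unstimulated cells in 10% FBS medium received compounds (10 points, 4-fold steps) for 4 h at 37° C. IC50 came from percent inhibition curves.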

Molecule | IC50 (EGFR (d746-750)) [nM] | IC50 (EGFR L858R) [nM] | IC50 [1] [nM]
COc1cc2ncnc(-c3cn(C)nc3-c3ccccc3)c2cc1NC(=O)c1c(Cl)cccc1Cl [Example 231, 2,6-dichloro-N-(7-methoxy-4-(1-methyl-3-phenyl-1H-pyrazol-4-yl)quinazolin-6-yl)benzamide] | 1 | 1.5 | 2.4
COc1cc2ncnc(-c3cn(C)nc3-c3ccccc3)c2cc1N1CCN(C)C1=O [Example 176, 1-(7-methoxy-4-(1-methyl-3-phenyl-1H-pyrazol-4-yl)quinazolin-6-yl)-3-methylimidazolidin-2-one] | 3 | 5.4 | 11
COc1cc2ncnc(-c3cn(C)nc3-c3ccccc3)c2cc1OC1COCCOC1 [Example 21, 6-((1,4-dioxepan-6-yl)oxy)-7-methoxy-4-(1-methyl-3-phenyl-1H-pyrazol-4-yl)quinazoline] | 3 | 7.4 | 10.5
COc1cc2ncnc(-c3cn(C)nc3-c3ccccc3)c2cc1NC(=O)c1c(C)cccc1F [Example 201, 2-fluoro-N-(7-methoxy-4-(1-methyl-3-phenyl-1H-pyrazol-4-yl)quinazolin-6-yl)-6-methylbenzamide] | 1.4 | 2 | 3.8
CCOc1cc2ncnc(-c3cn(CC)nc3-c3ccccc3)c2cc1[C@H](C)O (single isomer, unassigned) [Example 107, (S)-1-(7-ethoxy-4-(1-ethyl-3-phenyl-1H-pyrazol-4-yl)quinazolin-6-yl)ethan-1-ol or (R)-1-(7-ethoxy-4-(1-ethyl-3-phenyl-1H-pyrazol-4-yl)quinazolin-6-yl)ethan-1-ol] | 0.6 | 1.3 | 3.3
7-methoxy-6-(2-methyl-2H-indazol-4-yl)-4-(1-methyl-3-phenyl-1H-pyrazol-4-yl)pyrido[3,2-d]pyrimidine [Example 155] | 2 | 7.3 | 5.1
COc1cc2ncnc(-c3cn(C)nc3-c3ccccc3)c2nc1O[C@@H](C)c1csc(C)n1 [Example 33, (S)-4-(1-((7-methoxy-4-(1-methyl-3-phenyl-1H-pyrazol-4-yl)pyrido[3,2-d]pyrimidin-6-yl)oxy)ethyl)-2-methylthiazole] | 0.7 | 1.1 | 0.8
[2H]C([2H])([2H])N1CCN(C(=O)Nc2cc3c(-c4cn(C)nc4-c4ccccc4)ncnc3cc2OC)[C@@H](C)C1 [Example 181, (S)—N-(7-methoxy-4-(1-methyl-3-phenyl-1H-pyrazol-4-yl)quinazolin-6-yl)-2-methyl-4-(methyl-d3) piperazine-1-carboxamide] | 2.7 | 4.3 | 4.5
CCOc1cc2ncnc(-c3cn(C)nc3-c3ccccc3)c2cc1CO [Example 99, (7-ethoxy-4-(1-methyl-3-phenyl-1H-pyrazol-4-yl)quinazolin-6-yl)methanol] | 1.1 | 2 | 4.2
COc1cc2ncnc(-c3cn(CC(F)F)nc3-c3ccccc3)c2cc1C1(O)CC1 [Example 126, 1-(4-(1-(2,2-difluoroethyl)-3-phenyl-1H-pyrazol-4-yl)-7-methoxyquinazolin-6-yl)cyclopropan-1-ol] | 0.9 | 1.9 | 3.2
COc1cc2ncnc(-c3cn(CC(F)F)nc3-c3ccccc3)c2cc1OC [Example 15, 4-(1-(2,2-difluoroethyl)-3-phenyl-1H-pyrazol-4-yl)-6,7-dimethoxyquinazoline] | 0.8 | 1.5 | 1.5
COc1cc2ncnc(-c3cn(C)nc3-c3ccccc3)c2nc1O[C@@H](C)c1nnc(C)o1 [Example 37, (S)-2-(1-((7-methoxy-4-(1-methyl-3-phenyl-1H-pyrazol-4-yl)pyrido[3,2-d]pyrimidin-6-yl)oxy)ethyl)-5-methyl-1,3,4-oxadiazole] | 2 | 5.3 | 4.6

Continued, values first:

IC50 (EGFR (d746-750)) [nM] | IC50 (EGFR L858R) [nM] | IC50 [1] [nM] | Molecule
1.1 | 1.8 | 0.8 | CCn1cc(C(=O)Nc2cc3c(-c4cn(CC(F)F)nc4-c4ccccc4)ncnc3cc2OC)cn1 [Example 268, N-(4-(1-(2,2-difluoroethyl)-3-phenyl-1H-pyrazol-4-yl)-7-methoxyquinazolin-6-yl)-1-ethyl-1H-pyrazole-4-carboxamide]
0.7 | 1.4 | 1.6 | CCn1cc(-c2ncnc3cc(OC(F)F)c(NC(=O)C4CC4)cc23)c(-c2ccccc2)n1 [Example 302, N-(7-(difluoromethoxy)-4-(1-ethyl-3-phenyl-1H-pyrazol-4-yl)quinazolin-6-yl)cyclopropanecarboxamide]
1.2 | 2.7 | 1.5 | COc1cc2ncnc(-c3cn(C)nc3-c3ccccc3F)c2nc1NC(=O)C1(C(F)(F)F)CC1 [Example 317, N-(4-(3-(2-fluorophenyl)-1-methyl-1H-pyrazol-4-yl)-7-methoxypyrido[3,2-d]pyrimidin-6-yl)-1-(trifluoromethyl)cyclopropane-1-carboxamide]
1.3 | 5.5 | 5.3 | COc1cc2ncnc(-c3c[nH]nc3-c3ccc(F)cc3)c2nc1NC(=O)[C@]12COC[C@H]1C2 [Example 467, (1S,5S)—N-{4-[3-(4-fluorophenyl)-1H-pyrazol-4-yl]-7-methoxypyrido[3,2-d]pyrimidin-6-yl}-3-oxabicyclo[3.1.0]hexane-1-carboxamide]
1.7 | 2.1 | 1.6 | CCC(=O)Nc1cc2c(-c3cn(C)nc3-c3ccccc3)ncnc2cc1OC [Example 322, N-(7-methoxy-4-(1-methyl-3-phenyl-1H-pyrazol-4-yl)quinazolin-6-yl)propionamide]
1.3 | 2.2 | 2.8 | CCOc1cc2ncnc(-c3cn(C)nc3-c3ccccc3)c2nc1NC(=O)[C@@]12C[C@@H]1CN(C)C2 (single isomer, unassigned) [Example 377, (1S,5S)—N-(7-ethoxy-4-(1-methyl-3-phenyl-1H-pyrazol-4-yl)pyrido[3,2-d]pyrimidin-6-yl)-3-methyl-3-azabicyclo[3.1.0]hexane-1-carboxamide or (1R,5R)—N-(7-ethoxy-4-(1-methyl-3-phenyl-1H-pyrazol-4-yl)pyrido[3,2-d]pyrimidin-6-yl)-3-methyl-3-azabicyclo[3.1.0]hexane-1-carboxamide]
0.8 | 3.5 | 3.1 | COc1cc2ncnc(-c3cn(C)nc3-c3ccccc3)c2nc1NC(=O)C1(C)CCCO1 (stereo not drawn) [Example 316, N-(7-methoxy-4-(1-methyl-3-phenyl-1H-pyrazol-4-yl)pyrido[3,2-d]pyrimidin-6-yl)-2-methyltetrahydrofuran-2-carboxamide]
1 | 6.7 | 4.1 | COc1cc2ncnc(-c3cn(C)nc3-c3cccc(O)c3)c2nc1NC(=O)C1(C(F)(F)F)CC1 [Example 422, N-(4-(3-(3-hydroxyphenyl)-1-methyl-1H-pyrazol-4-yl)-7-methoxypyrido[3,2-d]pyrimidin-6-yl)-1-(trifluoromethyl)cyclopropane-1-carboxamide]
1.2 | 3.1 | 5.3 | COc1cc2ncnc(-c3cn(C)nc3-c3ccccc3)c2nc1NC(=O)[C@]1(C(F)(F)F)CCN(C)C1 (single isomer, unassigned) [Example 395, (S)—N-(7-methoxy-4-(1-methyl-3-phenyl-1H-pyrazol-4-yl)pyrido[3,2-d]pyrimidin-6-yl)-1-methyl-3-(trifluoromethyl) pyrrolidine-3-carboxamide or (R)—N-(7-methoxy-4-(1-methyl-3-phenyl-1H-pyrazol-4-yl)pyrido[3,2-d]pyrimidin-6-yl)-1-methyl-3-(trifluoromethyl) pyrrolidine-3-carboxamide]
1.1 | 1.7 | 0.5 | COc1cc2ncnc(-c3cn(CC(F)F)nc3-c3ccccc3)c2nc1NC(=O)[C@]12C[C@H]1CN(C)C2 (single isomer, unassigned) [Example 396, (1R,5R)—N-(4-(1-(2,2-difluoroethyl)-3-phenyl-1H-pyrazol-4-yl)-7-methoxypyrido[3,2-d]pyrimidin-6-yl)-3-methyl-3-azabicyclo[3.1.0]hexane-1-carboxamide or (1S,5S)—N-(4-(1-(2,2-difluoroethyl)-3-phenyl-1H-pyrazol-4-yl)-7-methoxypyrido[3,2-d]pyrimidin-6-yl)-3-methyl-3-azabicyclo[3.1.0]hexane-1-carboxamide]
0.9 | 1.2 | 1.3 | CCn1cc(-c2ncnc3cc(OC)c(NC(=O)[C@]45C[C@H]4CN(C)C5)nc23)c(-c2ccc(F)cc2)n1 (single isomer, unassigned) [Example 399, (1R,5R)—N-(4-(1-ethyl-3-(4-fluorophenyl)-1H-pyrazol-4-yl)-7-methoxypyrido[3,2-d]pyrimidin-6-yl)-3-methyl-3-azabicyclo[3.1.0]hexane-1-carboxamide or (1S,5S)—N-(4-(1-ethyl-3-(4-fluorophenyl)-1H-pyrazol-4-yl)-7-methoxypyrido[3,2-d]pyrimidin-6-yl)-3-methyl-3-azabicyclo[3.1.0]hexane-1-carboxamide]
1.8 | 3.3 | 6.5 | Cn1cc(-c2ncnc3cc(OC(F)F)c(NC(=O)C4CC4)cc23)c(-c2ccccc2)n1 [Example 279, N-(7-(difluoromethoxy)-4-(1-methyl-3-phenyl-1H-pyrazol-4-yl)quinazolin-6-yl)cyclopropanecarboxamide]
